Assay [1] has as its system HuTu-80 cells. The note with it: previous studies; cited from earlier work.
The target in another assay is T1, hTAS2R38PAV (Homo sapiens, UniProt P59533).
T1 sequence (P59533 1-333): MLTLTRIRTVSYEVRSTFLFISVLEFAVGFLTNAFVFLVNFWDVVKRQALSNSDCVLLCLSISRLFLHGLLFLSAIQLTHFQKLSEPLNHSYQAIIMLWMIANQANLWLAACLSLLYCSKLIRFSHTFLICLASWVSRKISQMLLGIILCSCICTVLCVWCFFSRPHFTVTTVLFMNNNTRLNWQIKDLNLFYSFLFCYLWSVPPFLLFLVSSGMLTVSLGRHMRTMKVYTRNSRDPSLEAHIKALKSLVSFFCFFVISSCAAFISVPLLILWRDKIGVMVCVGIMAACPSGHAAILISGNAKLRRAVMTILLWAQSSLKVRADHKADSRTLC
The note with it: taster haplotype; cited from earlier work.

The next assay deals with T2, hTAS2R38AVI (Homo sapiens, UniProt P59533, A262V).
T2 sequence (P59533 1-333 A262V): T1 sequence (P59533 1-333) with A262V
The note with it: non-taster haplotype; cited from earlier work.

Assay [2] has as its system HuTu-80 cells. The assay is described as follows: GLP-1 release from cultured HuTu-80 cells (Luminex assay). The class given is cell-based, human. The note with it: for GLP-1 release: HuTu-80 cells treated 30 min, GLP-1 in conditioned media; for increase in GLP-1 over the basal release / GLP-1 release compared with TAS2R38 ligands PTC and PTU: HuTu-80 cells; for increase in GLP-1 over the basal release: 30 min, FIG. 9A; for GLP-1 release compared with TAS2R38 ligands PTC and PTU: FIG. 9B, PTC and PTU 10 mM. As for the experimental part:
HuTu-80 cells were untreated (zero-time) or treated with vehicle and various phytochemicals at indicated concentrations for 30 min. […] Values are mean±SE, N=3, *P<0.05, **P<0.01
HuTu-80 cells (HTB-40, ATCC) were propagated in Dulbecco's modified Eagle's medium (DMEM) containing 4 mM L-glutamine, 1.5 g/L sodium bicarbonate, and 4.5 g/L glucose, supplemented with 10% FBS and PSG antibiotic mix and maintained at 10% CO2 and 37° C. For experiments, these cells were seeded in 6-well plates or […] tissue culture dishes, propagated to confluence (5-7 days) and arrested in serum-free media overnight prior to treatments. Prior to the experiment, spent media was replaced with OPTI-MEM (Gibco, Life Technologies, Grand Island, NY) containing Halt Protease and Phosphatase Inhibitor cocktail (Thermo Fisher Scientific, Rockford, IL) and individual wells dosed for 30 min. […] The media from cells was collected and frozen for subsequent peptide hormone release measurement using a Luminex MAGPIX metabolism multiplexing assay kit (HMHMAG-34K) following the manufacturer's instructions.

In another assay the target is T3, TAS2R38 (Homo sapiens, UniProt P59533).
T3 construct: Cultured HuTu-80 cells were transfected with single and mixed oligonucleotide siRNAs for TAS2R38; host or cells: HuTu-80
T3 sequence (P59533 1-333): T1 sequence (P59533 1-333)
The assay is described as follows: GLP-1 release in HuTu-80 cells with TAS2R38 siRNA knockdown. The class given is cell-based. The note with it: siTAS2R38 versus siCONTROL, 30 min. As for the experimental part:
In order to determine the specific GPCR mediating the response of a particular ligand, we performed in vitro RNA silencing of TAS2R38. RNA silencing was performed using a commercial kit (FlexiTube siRNA, Qiagen) consisting of 4 predesigned oligonucleotides that specifically target each gene transcript. Each kit also had accompanying controls and quantifying assays for detection of gene knockdown. Cultured HuTu-80 cells were transfected with single and mixed oligonucleotide siRNAs for TAS2R38 using HiPerFect transfection reagent (Qiagen) or Lipofectamine 2000 (Life Tech) according to the procedure recommended by the manufacturer. Cells were maintained in the basal medium for up to 48 h. Gene knockdown was evaluated by RT-qPCR and Western blot by suitable antibody to ensure inhibition occurred. […] Dose-response curve of the ligand with and without siRNA treatment was generated.
FIGS. 6, 7, and 8 show the receptor expression and knockdown in HuTu-80 cells using a TAS2R38 receptor siRNA.
Conditioned media were collected and frozen until GLP-1 measurement. Values are mean±SD, N=3. GLP-1 is measured using Luminex assay.

Another assay relates to GLP-1 release. The assay is described as follows: In vivo GLP-1 release in mice after gastric gavage. The note with it: PTU-cellulose 5 g/kg, PTU 200 mg/kg, FIG. 4B. Here is the method:
FIG. 4A Synthesis of PTU-cellulose.
Retro-orbital blood was obtained and GLP-1 was measured at regular intervals.
The molecules were administered by gastric gavage to pathogen-free, 6-to-8-week-old male BALB/c mice. […] The cellulose alone had no effect.

Assay [3] deals with HuTu-80 cells. The assay is described as follows: GLP-1 release from cultured HuTu-80 cells (Luminex assay). It counts as cell-based, human. The note with it: FIG. 3; printed as based on in vivo studies in mice.

Substitutions are numbered along the chain they refer to. Entries after “also recorded” stand apart in the source; their conditions may differ. Read-outs that look alike come from different tables or passages of the source.

As for `NC(=S)Nc1ccccc1` [PTC, Phenylthiocarbamide], in the assay with HuTu-80 cells [1], the GLP-1 release entry is listed as “GLP-1 release”. The receptor response result is “strong response at μM concentrations” on hTAS2R38PAV and “does not respond” on hTAS2R38AVI.

`CCCc1cc(=O)[nH]c(=S)[nH]1` [PTU, 6-n-propylthiouracil]: the GLP-1 release result in the assay on HuTu-80 cells [2] is given as “caused GLP-1 release”. Moreover, at TAS2R38, the “GLP-1 release when TAS2R38 expression is knocked down” value was “right-shifted”. The “GLP-1 release into the blood” value in the assay on GLP-1 release is on record as “caused GLP-1 release into the blood”.

On to `O=c1oc2c(O)c(O)cc3c(=O)oc4c(O)c(O)cc1c4c23` [ellagic acid], for which, in the assay with HuTu-80 cells [2], the “increase in GLP-1 over the basal release” value was “significant increases”.

As to `CN(C)C(=N)N=C(N)N` [metformin], the GLP-1 release result in the assay on HuTu-80 cells [2] is given as “can activate GLP-1 release”.

For the molecule `CC1(C)CC[C@]2(C(=O)O)CC[C@]3(C)C(=CC[C@@H]4[C@@]5(C)CC[C@H](O)C(C)(C)[C@@H]5CC[C@]43C)[C@@H]2C1` [oleanolic acid], the “increase in GLP-1 over the basal release” value with HuTu-80 cells [2] is on record as “significant increases”.

On to `CCCCCCCCCCCCCCCC(=O)O` [palmitate, palmitic acid], for which, in the assay on HuTu-80 cells [2], the GLP-1 release result is “GLP-1 secretory response was also observed”; the “GLP-1 release compared with TAS2R38 ligands PTC and PTU” value was “stimulate GLP-1 release comparable to that by TAS2R38 ligands PTC and PTU”.

On to `CCC(=O)O` [propionate], for which, in the assay on HuTu-80 cells [2], the GLP-1 release entry was “GLP-1 secretory response was also observed”; the “GLP-1 release compared with TAS2R38 ligands PTC and PTU” value was “stimulate GLP-1 release comparable to that by TAS2R38 ligands PTC and PTU”.

As to `O=c1oc2cc(O)ccc2c2ccc(O)cc12` [urolithin A], the “increase in GLP-1 over the basal release” value in the assay with HuTu-80 cells [2] is given as “significant increases”.

For the molecule “Ala-Ala-Ala-Ala (AAAA; printed: Ala-Ala-Ala-Ala) [PolyAla, scrambled PolyAla control peptide]”, the GLP-1 release result in the assay on HuTu-80 cells [2] was “in effective at causing GLP-1 release”.

With “YGLF [BPx1, bitter oligopeptide derived from milk-whey proteins]”, the “GLP-1 release when TAS2R38 expression is knocked down” value with TAS2R38 was “predominantly through TAS2R38; also recorded: decreased”. Also, the “potency rank among the four oligopeptides” value in the assay with HuTu-80 cells [3] is on record as “most potent”.

For “YPFPGPIPN [BPx2, bitter oligopeptide derived from milk-whey proteins]”, the “potency rank among the four oligopeptides” value with HuTu-80 cells [3] is on record as “most potent”.

Values taken from patent US12551526B2, “Enterically delivered bitter oligopeptides for the treatment for type 2 diabetes” (Cedars-Sinai Medical Center, priority 2015, dated 2026).
